From patent US4031093A, “1,6-Dihydro-6-oxo-2-(ortho-substituted phenyl)pyrimidine-5-carboxylic acid derivatives” (priority 1976, dated 1977)
Where two headings read alike, the source gives them in different places.

Assays:
[1] = test system: reagin-mediated rat Passive Cutaneous Anaphylaxis (PCA); experiment: reagin-mediated rat Passive Cutaneous Anaphylaxis (PCA) screening test; type: in vivo, rat (Sprague-Dawley)
Description: The reagin-mediated rat Passive Cutaneous Anaphylaxis (PCA) screening test used to evaluate the present compounds is generally regarded as one of the best animal models for use in predicting the antiallergy activity of test compounds in man. Briefly, the method consists of passive sensitization of skin sites on the test animals with reaginic antibodies followed after 24 hours by administration of the test drug and antigen challenge. The allergic response is measured by use of Evans' blue dye and is evaluated by the spot diameter at the injection site. Details of the test are provided below.
A substituted ovalbumin antigen is used both as immunogen and challenging antigen. The antigen is prepared as follows: 500 mg. ovalbumin (EA) and 500 mg. K2 CO3 are dissolved in 25 ml. distilled H2 O and stirred at room temperature for 5 minutes. Five hundred (500) mg. dinitrobenzene sulfonic acid, Na^+ salt, (previously recrystallized from hot absolute ethanol) is then added slowly with continued stirring. The reaction mixture is then immediately placed in the dark and allowed to proceed for 2 hours with constant stirring. After 2 hours the mixture is placed in suitable dialysis tubing and dialyzed against 5 changes (4 liters each) of distilled H2 O at 5° C. After dialysis the product is lyophilized and stored at room temperature in a brown or amber container. The antigen obtained will appear as a light yellow, amorphous solid which is very soluble in water or saline. It is designated as DNP denatured ovalbumin (DNP-d EA).
Adult, male Sprague-Dawley rats are used as a source of reagin-rich antisera for the PCA model. Immunization is by a combination of DNP-d EA on Al (OH)3 gel and B. pertussis vaccine. Preparation of the DNP-d EA - gel immunogen is as follows: Dissolve the DNP-d EA in TBS so as to give a concentration of 10 mg./ml. Slowly add 1 ml. of this solution to 10 ml. Al(OH)3 gel (10 mg. solids/ml.) with constant stirring at room temperature. Stir the mixture an additional 30 minutes to insure a uniform adsorption of antigen on gel.
The resulting preparation is then used in combination with phase I B. pertussis vaccine to immunize male S/D rats as follows: For each rat administer 0.1 ml. DNP-d EA - gel suspension intramuscularly in each hind leg (200 μg DNP-d EA and 2 mg. gel total dose). Follow these injections by the intraperitoneal administration of 1.0 ml. B. pertussis vaccine (10-20 × 10^9 organisms). The use of light ether anesthesia during this procedure is recommended to insure proper intramuscular and intraperitoneal injections. Nine days following immunization (but no longer than 10) the animals are exsanguinated by cardiac puncture or abdominal aorta cannulation under ether or pentobarbital anesthesia. The collected whole blood is allowed to clot, the serum separated by centrifugation and the individual serum samples stored frozen until assayed for IgE content.
Individual serum samples should be screened for reaginic antibody concentration before being pooled with other sera, as not all rats respond to immunization procedures with reagin production. A 1:50 saline dilution of serum from each immunized rat is used for this purpose. Intradermal injections of 0.05 ml. of the diluted sera are made in the shaven backs of two small female recipient rats, 100-120 gms. Several serum samples can be tested simultaneously in recipient animals. After a 24 to 48 hour latent period antigen challenge is accomplished by […] administration to each rat of 1 mg. DNP-d EA in 0.5 ml. 0.5% Evans' blue dye in saline. Sera which show positive PCA reactions at the 1:50 dilution, as measured 20 to 30 minutes post-challenge are pooled, dispensed in small aliquots and stored at -70° C. or lower until used. Negative sera may be discarded.
The IgE titer of the antisera pool should then be determined. […]

[2] = bronchial asthma treatment; cited from earlier work
[3] = cited from earlier work
[4] = test system: release of mediators, e.g. histamine and SRS-A; settings: administered to asthmatic patients prior to inhalation of specific antigens; cited from earlier work
[5] = po, Table I, p.o., 10 minutes prior to antigen challenge, esters suspended in Tween/CMC, read-out: ID50 (dose of compound that inhibits 50% of the response), ethyl esters, p.o.
[6] = po, Table II, p.o., 10 minutes prior to antigen challenge, acids solubilized in aqueous sodium bicarbonate, read-out: ID50 (dose of compound that inhibits 50% of the response), 5-carboxylic acids, p.o.
[7] = iv, Table II, i.v., 1-5 minutes prior to antigen challenge, acids solubilized in aqueous sodium bicarbonate, read-out: ID50 (dose of compound that inhibits 50% of the response), 5-carboxylic acids, i.v.

SMILES | ED50 [1, 5] [mg/kg] | ED50 [1, 6] [mg/kg] | other results
CCOC(=O)c1cnc(-c2cc(OC)ccc2OC)[nH]c1=O [Example 15A, Ethyl 1,6-dihydro-6-oxo-2-(2,5-dimethoxyphenyl)pyrimidine-5-carboxylate] | 5 | – | –
CCCOc1ccccc1-c1ncc(C(=O)OCC)c(=O)[nH]1 [Example 5, Ethyl 1,6-dihydro-6-oxo-2-(2-n-propoxyphenyl)pyrimidine-5-carboxylate] | ~5 | – | –
CNC[C@H](O)c1ccc(O)c(O)c1 [epinephrine] | – | – | side effects [2]: undesirable side effects, e.g. cardiac stimulation and gastrointestinal distress
CC(C)NCC(O)c1ccc(O)c(O)c1 (stereo not drawn) [isoproterenol] | – | – | side effects [2]: undesirable side effects, e.g. cardiac stimulation and gastrointestinal distress
CCOC(=O)c1cnc(-c2cc(Cl)ccc2OCC)[nH]c1=O [Example 15B, Ethyl 1,6-dihydro-6-oxo-2-(5-chloro-2-ethoxyphenyl)pyrimidine-5-carboxylate] | ~0.5 | – | –
CCOC(=O)c1cnc(-c2ccccc2OCC(C)C)[nH]c1=O [Example 12, Ethyl 1,6-dihydro-6-oxo-2-(2-isobutoxyphenyl)pyrimidine-5-carboxylate] | ~3 | – | –
CCOc1ccc(Cl)cc1-c1ncc(C(=O)O)c(=O)[nH]1 [Example 24E, 1,6-Dihydro-6-oxo-2-(5-chloro-2-ethoxyphenyl)pyrimidine-5-carboxylic acid] | – | 0.5 | –
CCOc1ccc(OC)cc1-c1ncc(C(=O)O)c(=O)[nH]1 [Example 24G, 1,6-Dihydro-6-oxo-2-(2-ethoxy-5-methoxyphenyl)pyrimidine-5-carboxylic acid] | – | 0.2 | –
CC(C)COc1ccccc1-c1ncc(C(=O)O)c(=O)[nH]1 [Example 24C, 1,6-Dihydro-6-oxo-2-(2-isobutoxyphenyl)pyrimidine-5-carboxylic acid] | – | 0.5 | –
O=C(O)c1cc(=O)c2c(OCC(O)COc3cccc4oc(C(=O)O)cc(=O)c34)cccc2o1 [DSCG, Disodium cromoglycate, reference compound] | > 30 | > 30 | oral absorption [3]: not orally absorbed; ED50 ([1]; iv, Table I, i.v., compound dosed at time of challenge, solubilized in saline, read-out: ID50, DSCG, i.v. (Table I)): 0.3 mg/kg; inhibition of release of mediators [4]: inhibits the release of mediators, e.g. histamine and SRS-A
CCOC(=O)c1cnc(-c2ccccc2OCC)[nH]c1=O [Example 1, Ethyl 1,6-dihydro-6-oxo-2-(2-ethoxyphenyl)pyrimidine-5-carboxylate] | ~2 | – | ED50 ([1]; iv, Table I, i.v., 1-5 minutes prior to antigen challenge, esters suspended in Tween/CMC, read-out: ID50 (dose of compound that inhibits 50% of the response), ethyl esters, i.v.): 0.4 mg/kg
CC(C)Oc1ccccc1-c1ncc(C(=O)O)c(=O)[nH]1 [Example 22, 1,6-Dihydro-6-oxo-2-(2-isopropoxyphenyl)pyrimidine-5-carboxylic acid] | – | 0.8 | –
CCOC(=O)c1cnc(-c2ccccc2OCC2CC2)[nH]c1=O [Example 18, Ethyl 1,6-dihydro-6-oxo-2-(2-cyclopropylmethoxyphenyl)pyrimidine-5-carboxylate] | ~0.3 | – | –
CCCOc1ccc(OC)cc1-c1ncc(C(=O)O)c(=O)[nH]1 [Example 27, 1,6-Dihydro-6-oxo-2-(5-methoxy-2-n-propoxyphenyl)pyrimidine-5-carboxylic acid] | – | 0.3 | –
CN1[C@@H]2CC[C@H]1C[C@@H](OC(=O)C(CO)c1ccccc1)C2 (stereo partly drawn) [atropine] | – | – | side effects [2]: undesirable side effects, e.g. cardiac stimulation and gastrointestinal distress
CCOC(=O)c1cnc(-c2cc(N)ccc2OCC)[nH]c1=O [Example 17, Ethyl 1,6-dihydro-6-oxo-2-(5-amino-2-ethoxyphenyl)pyrimidine-5-carboxylate] | 0.5 | – | –

SMILES | ED50 [1, 5] [mg/kg] | ED50 [1, 6] [mg/kg] | other results
CCOC(=O)c1cnc(-c2ccccc2OC(C)CC)[nH]c1=O (racemic) [Example 10, Ethyl (±)-1,6-dihydro-6-oxo-2-(2-sec-butoxyphenyl)pyrimidine-5-carboxylate] | 0.5 | – | –
CCOc1ccc(N(C)C)cc1-c1ncc(C(=O)O)c(=O)[nH]1 [Example 26, 1,6-Dihydro-6-oxo-2-(5-dimethylamino-2-ethoxyphenyl)pyrimidine-5-carboxylicacid] | – | 0.3 | –
CCCCOc1ccccc1-c1ncc(C(=O)OCC)c(=O)[nH]1 [Example 9, Ethyl 1,6-dihydro-6-oxo-2-(2-n-butoxyphenyl)pyrimidine-5-carboxylate] | 0.5 | – | –
CCOc1ccc(N)cc1-c1ncc(C(=O)O)c(=O)[nH]1 [Example 24F, 1,6-Dihydro-6-oxo-2-(5-amino-2-ethoxyphenyl)pyrimidine-5-carboxylic acid] | – | 0.9 | –
CCCOc1ccc(OC)cc1-c1ncc(C(=O)OCC)c(=O)[nH]1 [Example 19, Ethyl 1,6-dihydro-6-oxo-2-(5-methoxy-2-n-propoxyphenyl)-pyrimidine-5-carboxylate] | 0.7 | – | –
CCCCOc1ccccc1-c1ncc(C(=O)O)c(=O)[nH]1 [Example 23, 1,6-Dihydro-6-oxo-2-(2-n-butoxyphenyl)pyrimidine-5-carboxylic acid] | – | 0.5 | –
CCOC(=O)c1ccc(OCC)c(-c2ncc(C(=O)OCC)c(=O)[nH]2)c1 [Example 16, Ethyl 1,6-dihydro-6-oxo-2-(5-carbethoxy-2-ethoxyphenyl)pyrimidine-5-carboxylate] | 1 | – | –
C=CCOc1ccccc1-c1ncc(C(=O)OCC)c(=O)[nH]1 [Example 8, Ethyl 1,6-dihydro-6-oxo-2-(2-allyloxyphenyl)pyrimidine-5-carboxylate] | 0.5 | – | –
O=C(O)c1cnc(-c2ccccc2OCC2CC2)[nH]c1=O [Example 25, 1,6-Dihydro-6-oxo-2-(2-cyclopropylmethoxyphenyl)pyrimidine-5-carboxylic acid] | – | ~0.1 | –
CCC(C)Oc1ccccc1-c1ncc(C(=O)O)c(=O)[nH]1 (racemic) [Example 24B, (±)-1,6-Dihydro-6-oxo-2-(2-sec-butoxyphenyl)pyrimidine-5-carboxylic acid] | – | 0.5 | –
CCOc1ccccc1-c1ncc(C(=O)O)c(=O)[nH]1 [Example 20, 1,6-Dihydro-6-oxo-2-(2-ethoxyphenyl)pyrimidine-5-carboxylic acid] | – | 0.5 | ED50 [1, 7]: 0.07 mg/kg
CCOC(=O)c1cnc(-c2ccccc2OC(C)C)[nH]c1=O [Example 7, Ethyl 1,6-dihydro-6-oxo-2-(2-isopropoxyphenyl)pyrimidine-5-carboxylate] | ~2 | – | –
CCOC(=O)c1cnc(-c2cc(OC)ccc2OCC)[nH]c1=O [Example 15C, Ethyl 1,6-dihydro-6-oxo-2-(2-ethoxy-5-methoxyphenyl)pyrimidine-5-carboxylate] | 0.3 | – | –
C=CCOc1ccccc1-c1ncc(C(=O)O)c(=O)[nH]1 [Example 24A, 1,6-Dihydro-6-oxo-2-(2-allyloxyphenyl)pyrimidine-5-carboxylic acid] | – | 0.5 | –
CCCOc1ccccc1-c1ncc(C(=O)O)c(=O)[nH]1 [Example 21, 1,6-Dihydro-6-oxo-2-(2-n-propoxyphenyl)pyrimidine-5-carboxylic acid] | – | 0.9 | ED50 [1, 7]: ~0.1 mg/kg
COc1ccc(OC)c(-c2ncc(C(=O)O)c(=O)[nH]2)c1 [Example 24D, 1,6-Dihydro-6-oxo-2-(2,5-dimethoxyphenyl)pyrimidine-5-carboxylic acid] | – | 1 | –
